# Measured values taken from ChEMBL document CHEMBL4616705, “Computer-Aided Fragment Growing Strategies to Design Dual Inhibitors of Soluble Epoxide Hydrolase and LTA4 Hydrolase” (ACS Med Chem Lett, 2020).
# Key:
# [1] = target: T1, Leukotriene A-4 hydrolase (Homo sapiens) (UniProt P09960); experiment: (§1) Inhibition of recombinant human full length C-terminal His6-tagged LTA4H expressed in Escherichia coli BL21 DE3 cells assessed as reduction in amino-4-methylcoumarin formation using L-arginine-7-amino-4-methylcoumarin as substrate at 10 uM incubated for 30 mins followed by substrate addition and measured for 30 mins by fluorescence based assay relative to control
# T1 sequence (whole entry): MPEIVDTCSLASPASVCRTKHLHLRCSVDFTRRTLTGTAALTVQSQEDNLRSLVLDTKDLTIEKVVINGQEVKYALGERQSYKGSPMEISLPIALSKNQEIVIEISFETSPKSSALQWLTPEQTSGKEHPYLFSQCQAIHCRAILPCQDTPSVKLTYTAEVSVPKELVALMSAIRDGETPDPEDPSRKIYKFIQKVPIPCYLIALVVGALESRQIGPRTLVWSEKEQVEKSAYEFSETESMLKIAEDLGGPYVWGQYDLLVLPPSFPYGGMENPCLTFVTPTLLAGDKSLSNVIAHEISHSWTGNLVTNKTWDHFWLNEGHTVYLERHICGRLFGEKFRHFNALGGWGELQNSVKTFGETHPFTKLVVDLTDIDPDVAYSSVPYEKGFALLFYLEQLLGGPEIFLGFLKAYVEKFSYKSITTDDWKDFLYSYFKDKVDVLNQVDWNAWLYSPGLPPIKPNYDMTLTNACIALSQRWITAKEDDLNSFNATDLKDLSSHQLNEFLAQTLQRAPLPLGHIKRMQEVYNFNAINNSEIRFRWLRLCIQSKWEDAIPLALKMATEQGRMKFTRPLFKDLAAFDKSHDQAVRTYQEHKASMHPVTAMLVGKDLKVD
# [2] = target: T2, Bifunctional epoxide hydrolase 2 (Homo sapiens, UniProt P34913); experiment: (§2) Inhibition of recombinant human full length sEH (1 to 555 residues) expressed in Escherichia coli BL21 DE3 cells assessed as reduction in 6-methoxynaphthaldehyde formation using PHOME as substrate incubated for 45 mins followed by substrate addition and measured for 45 mins by fluorescence based assay
# T2 sequence (P34913 whole entry): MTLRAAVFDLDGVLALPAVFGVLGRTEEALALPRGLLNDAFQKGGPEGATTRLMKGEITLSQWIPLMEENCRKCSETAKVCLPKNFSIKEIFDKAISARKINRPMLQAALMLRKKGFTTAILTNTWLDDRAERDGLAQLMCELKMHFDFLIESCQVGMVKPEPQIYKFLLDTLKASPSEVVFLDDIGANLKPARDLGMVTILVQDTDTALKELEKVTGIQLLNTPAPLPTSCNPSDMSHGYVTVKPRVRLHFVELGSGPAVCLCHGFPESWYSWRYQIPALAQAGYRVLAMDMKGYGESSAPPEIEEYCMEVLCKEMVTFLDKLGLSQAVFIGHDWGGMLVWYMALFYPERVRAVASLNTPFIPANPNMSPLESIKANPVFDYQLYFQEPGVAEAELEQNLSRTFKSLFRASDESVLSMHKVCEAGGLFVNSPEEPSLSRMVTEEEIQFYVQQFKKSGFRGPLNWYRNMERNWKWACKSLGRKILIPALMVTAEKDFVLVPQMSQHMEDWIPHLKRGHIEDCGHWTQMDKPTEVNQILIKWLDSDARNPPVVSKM
# [3] = target: T3, Leukotriene A-4 hydrolase (Homo sapiens, UniProt P09960); experiment: as §1, with “substrate” for “substrate at 10 uM”, “assay” for “assay relative to control”
# T3 sequence (P09960 whole entry): T1 sequence (whole entry)
# [4] = target: T4, Bifunctional epoxide hydrolase 2 (Homo sapiens) (UniProt P34913); experiment: as §2, with “as substrate at 10 uM incubated for” for “as substrate incubated for”, “based assay relative to control” for “based assay”
# T4 sequence (whole entry): T2 sequence (P34913 whole entry)
inhibition [1] [%],IC50 [2] [µM],IC50 [3] [µM],inhibition [4] [%],SMILES
4,10,,,O=C(CCc1ccc(OCc2ccccc2)cc1)NCC1CCN(c2cccc(Br)c2)C1 (stereo not given)
,28,3.2,,O=C(CCc1ccc(OCc2ccccc2)cc1)NCCC1CCN(Cc2ccccc2)C1 (stereo not given)
9,,,6,O=C(CCc1ccc(OCc2ccccc2)cc1)Nc1ccc(S(=O)(=O)NCC(F)(F)F)cc1
,15,,,O=C(CCc1ccc(OCc2ccccc2)cc1)NCC1CCCN(CCc2ccccc2)C1 (stereo not given)
,0.5,,,O=C(CCc1ccc(OCc2ccccc2)cc1)NCC1CCN(Cc2cccs2)CC1
,,18.3,7,O=C(CCc1ccc(OCc2ccccc2)cc1)NCC1CCN(CCCc2ccccc2)CC1
16,16,,,O=C(CCc1ccc(OCc2ccccc2)cc1)Nc1ccc(OCCN2CCCCCC2)cc1
,4.7,,,CCOP(=O)(OCC)c1ccc(NC(=O)CCc2ccc(OCc3ccccc3)cc2)cc1
16,1.3,,,O=C(CCc1ccc(OCc2ccccc2)cc1)Nc1ccc(CCN2CCOCC2)cc1
